In patent publication US7223796B2, “Acyl-4-carboxyphenylurea derivatives, processes for preparing them and their use” (Sanofi-aventis Deutschland GmbH, priority 2002, dated 2007):

Tests used:
[1] = biological target: T1, Human glycogen phosphorylase a (Homo sapiens, UniProt P06737); assay: Glycogen phosphorylase a activity test; type: biochemical; details: read-out: % inhibition at 10 μM; 10 μM test substance; GPa measured in reverse direction (glycogen synthesis from glucose 1-phosphate, phosphate release)
T1 sequence (P06737 2-847 limits assumed): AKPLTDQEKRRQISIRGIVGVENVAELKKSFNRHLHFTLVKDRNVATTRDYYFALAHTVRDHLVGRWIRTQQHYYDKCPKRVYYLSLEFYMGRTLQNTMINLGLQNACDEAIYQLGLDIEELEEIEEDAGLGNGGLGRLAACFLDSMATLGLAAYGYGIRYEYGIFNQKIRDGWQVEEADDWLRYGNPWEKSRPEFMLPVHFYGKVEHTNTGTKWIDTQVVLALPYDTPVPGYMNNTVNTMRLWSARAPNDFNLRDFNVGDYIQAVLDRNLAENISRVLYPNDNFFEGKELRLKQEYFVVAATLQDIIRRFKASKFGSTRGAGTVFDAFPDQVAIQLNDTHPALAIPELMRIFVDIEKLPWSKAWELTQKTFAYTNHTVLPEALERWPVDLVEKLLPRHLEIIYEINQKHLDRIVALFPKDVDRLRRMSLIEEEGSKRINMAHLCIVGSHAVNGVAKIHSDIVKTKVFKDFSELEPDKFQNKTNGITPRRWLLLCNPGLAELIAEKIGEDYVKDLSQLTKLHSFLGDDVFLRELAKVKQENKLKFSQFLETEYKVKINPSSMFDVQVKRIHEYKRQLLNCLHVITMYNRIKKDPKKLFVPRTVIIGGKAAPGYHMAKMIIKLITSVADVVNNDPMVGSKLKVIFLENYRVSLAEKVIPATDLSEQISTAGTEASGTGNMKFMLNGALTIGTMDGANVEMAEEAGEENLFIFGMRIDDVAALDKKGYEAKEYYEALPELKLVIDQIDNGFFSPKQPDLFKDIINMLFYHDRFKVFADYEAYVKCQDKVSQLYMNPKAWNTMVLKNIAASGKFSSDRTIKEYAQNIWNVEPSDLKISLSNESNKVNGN
Experimental: Glycogen Phosphorylase a Activity Test
All the reactions were carried out as duplicate determinations in 96-well microtiter plates (Half Area Plates, Costar No. 3696), with the change in absorption due to the formation of the reaction product being measured, at the wavelength specified below, in a Multiscan Ascent Elisa Reader (Lab Systems, Finland). In order to measure the enzymic activity of GPa in the reverse direction, the conversion of glucose 1-phosphate into glycogen and inorganic phosphate was measured in accordance with the general method of Engers et al. (Engers H D, Shechosky S, Madsen N B, Can J Biochem 1970 July;48(7): 746–754) but with the following modifications: Human glycogen phosphorylase a (for example containing 0.76 mg of protein/ml (Aventis Pharma Deutschland GmbH), dissolved in buffer solution E (25 mM β-glycerophosphate, pH 7.0, 1 mM EDTA and 1 mM dithiothreitol), was diluted with buffer T (50 mM Hepes, pH 7.0, 100 mM KCl, 2.5 mM EDTA, 2.5 mM MgCl2.6H2O), and addition of 5 mg of glycogen/ml, to a concentration of 10 μg of protein/ml. […] The basal value of the activity of the glycogen phosphorylase a in the absence of test substance was determined by adding 10 μl of buffer solution T (0.1% DMSO). […] After 60 minutes of incubation at 45° C., the absorption was measured at 820 nm. […]

Work on `O=C(NC(=O)c1cc(F)c(F)cc1Cl)Nc1ccc(C(=O)O)cc1OC(F)(F)F` [Example 48, 4-[3-(2-Chloro-4,5-difluorobenzoyl)ureido]-3-trifluoromethoxybenzoic acid] yielded a melting point of 236 °C and an inhibition at 10 µM [1] of 99%.
